Measurements as given in US20250320523A1, “PHAGOCYTOSIS ASSAY COMBINING A SYNTHETIC CELL DEATH SWITCH AND A PHAGOCYTOSIS REPORTER SYSTEM” (Hoffmann-La Roche Inc., priority 2022, published 2025).

Tests used:
[1] = tested on: HEK293 cells transfected with iCaspase9; assay: Apoptosis induction in iCaspase9-transfected HEK293 cells, AnnexinV/viability dye flow cytometry; assay type: cell-based
Description: HEK293 cells were transfected with 2 μg of iCaspase9 construct by nucleofection (Amaxa 4D nucleofector by Lonza, program CM-130) and plated in a 24-well plate. The following day, 100 nM AP20187 was added to the cells, and analyzed 1 h, 2 h or 3 h later. For the control, the cells were incubated with […] Staurosporine for 3 h. For the analysis, the cells were harvested and labeled with AnnexinV-BV421 and viability dye APCeF780 and analyzed by flow cytometry. Apoptotic cells were qualified as AnnexinV-positive and viability dye-negative.

[2] = tested on: H4-iCaspase-SEP-mCherry cells in blood-brain barrier spheroids; assay: Phagocytosis assay in 3D BBB spheroids (H4-iCaspase-SEP-mCherry and HMC3 microglia); assay type: cell-based, human; conditions: 100 nM AP20187, day 2, imaged 8 hours
Description: H4 cells were transduced with a lentiviral vector containing iCaspase-SEP-mCherry, single-cell sorted for SEP- and mCherry double-positive cells and expanded in 1 μg/ml Puromycin-containing media to select for stably transduced cells. H4-iCaspase-SEP-mCherry and HMC3 microglia were co-seeded with primary human brain endothelial cells, pericytes and astrocytes (Sciencell) to form blood-brain barrier (BBB) spheroids as described by Simonneau, C et al. Investigating receptor-mediated antibody transcytosis using blood-brain barrier organoid arrays. Fluids Barriers CNS. 2021; 18 (1): 43. Briefly, the cells were combined at a 1:1:1:1:1 ratio and seeded into a glass-bottom GRI3D microwell plate (SUN Biosciences). After 2 days of culture in EGM2 medium (Lonza) with astrocyte growth supplement (Sciencell), a timelapse experiment was performed as described above (for FIG. 4): Apoptosis was induced at t0 by adding 100 nM AP20187 to the media, and time-lapse imaging was immediately started on an inverted fluorescence microscope (Leica) using autofocus, 10× objective, 1 image every 10 minutes for 8 hours or more.

[3] = tested on: H4-iCaspase-SEP-mCherry cells in neurovascular unit model; assay: Phagocytosis assay in 3D neurovascular unit model in microfluidic chip; assay type: cell-based, human; conditions: 10 nM AP20187, 3D matrix of microfluidic chip, after 7 days culture
Description: H4 cells were transduced with a lentiviral vector containing iCaspase-SEP-mCherry, single-cell sorted for SEP- and mCherry double positive cells and expanded in 1 μg/ml Puromycin-containing media to select for stably transduced cells. H4-iCaspase-SEP-mCherry and HMC3 microglia were co-seeded with primary human brain endothelial cells, pericytes and astrocytes (Sciencell) at the ratio 1:1:4:0.5:1 and left to self-assemble to neurovascular units inside a fibrin gel matrix in a microfluidic chip (AIM Biotech). The cells were seeded into the microfluidic chips as described in Campisi, M et al.3D Self-Organized Human Blood-Brain Barrier in a Microfluidic Chip. Methods Mol Biol. 2021; 2258:205-219, and the vascular networks were grown over 7 days in EGM2 medium (Lonza) with astrocyte growth supplement (Sciencell). Apoptosis was induced at t0 by adding 10 nM AP20187 to the media, the chips were then fixed in 4% PFA after 30 minutes or 2 h, counterstained with DAPI and imaged on an inverted fluorescence microscope.

[4] = tested on: phagocytosis by iPSC-derived microglia; assay: 2D phagocytosis of apoptotic H4-iCaspase-SEP-mCherry cells by iPSC-derived microglia (Incucyte imaging); assay type: cell-based, human; conditions: 1 uM Cytochalasin D added 30 min before imaging; apoptosis induced with 10 nM AP20187
Description: H4 cells were transduced with a lentiviral vector containing iCaspase-SEP-mCherry, single-cell sorted for SEP and mCherry double-positive cells and expanded in 1 μg/ml Puromycin-containing media to select for stably transduced cells. HMC3 or iPSC-derived microglia (Reich, M et al. Alzheimer's Risk Gene TREM2 Determines Functional Properties of New Type of Human iPSC-Derived Microglia. 2021; 11:617860) were seeded in a 96-well imaging plate […]. To visualize microglial morphology during the phagocytosis assay, cells were stained with a far-red viability dye (eBioscience). H4-iCaspase-SEP-mCherry cells were added the next day and left to attach for 3 h. […] Apoptosis was induced at to by adding 10 nM AP20187 to the media, and time-lapse imaging was immediately started on an inverted fluorescence microscope (Leica) or incucyte (Sartorius), 10× objective, 1 image every 10 minutes for 8 hours or more.
The number of phagocytosed cells per area was determined using the incucyte software for automated image quantification, by 1) segmenting individual cells, 2) identifying all H4-iCaspase-SEP-mCherry cells positive for mCherry (red fluorescence) and 3) from those cells, identifying the SEP (green fluorescence) negative cells as phagocytosed cells. […]

[5] = tested on: efferocytosis by THP-1 macrophages; assay: Efferocytosis of Jurkat-iCaspase-SEP-mCherry cells by THP-1 macrophages, flow cytometry; assay type: cell-based; conditions: Jurkat cells pre-treated, then 10 nM AP20187, incubated with THP-1 macrophages
Description: Jurkat cells were transduced with a lentiviral vector containing iCaspase-SEP-mCherry, FACS sorted for SEP- and mCherry-expression and expanded in 1 ug/ml Puromycin-containing media to select for stably transduced cells. For pre-treatments, the Jurkat cells were incubated with GAS6, an efferocytosis enhancer, or Cytochalasin D, an efferocytosis inhibitor, then exposed to 10 nM AP20187 and incubated with THP-1 macrophages. As a control, Jurkat cells were treated with Staurosporin and labeled with pHrodo (red pH-sensitive fluorophore). Efferocytosis was quantified using flow cytometry, by gating for mCherry-positive and SEP-negative cells (apoptotic cells taken up by THP1), and for pHrodo-high cells in the control samples.

CC[C@H](C(=O)N1CCCC[C@H]1C(=O)O[C@H](CCc1ccc(OC)c(OC)c1)c1cccc(OCC(=O)NCC(CNC(=O)COc2cccc([C@@H](CCc3ccc(OC)c(OC)c3)OC(=O)[C@@H]3CCCCN3C(=O)[C@@H](CC)c3cc(OC)c(OC)c(OC)c3)c2)CN(C)C)c1)c1cc(OC)c(OC)c(OC)c1 [AP20187]
apoptotic cells (AnnexinV-positive and viability dye-negative) ([1]; 100 nM AP20187, after 1 h, iCaspase9 HEK293 cells): 88% | SEP signal of spheroids (loss indicates phagocytosis) [2]: gradually lost SEP signal | time to efficient induction of apoptosis in transduced cells [3]: ≤ 30 min

CN[C@@H]1C[C@H]2O[C@@](C)([C@@H]1OC)n1c3ccccc3c3c4c(c5c6ccccc6n2c5c31)C(=O)NC4 [Staurosporine]
apoptotic cells (AnnexinV-positive and viability dye-negative) ([1]; Staurosporine, after 3 h): 36%

C=C1[C@@H](C)[C@H]2[C@H](Cc3ccccc3)NC(=O)[C@]23[C@H](OC(C)=O)/C=C/[C@@](C)(O)C(=O)[C@@H](C)C/C=C/[C@H]3[C@@H]1O [Cytochalasin D]
onset and total amount of phagocytosed apoptotic cells [4]: reduces both the onset and total amount | uptake of apoptotic cells by macrophages [5]: lowest uptake

B1: GAS6: an efferocytosis enhancer (protein, UniProt Q14393 31-678, looked up)
Growth arrest-specific …: ALLPAREATQFLRPRQRRAFQVFEEAKQGHLERECVEELCSREEAREVFENDPETDYFYPRYLDCINKYGSPYTKNSGFATCVQNLPDQCTPNPCDRKGTQACQDLMGNFFCLCKAGWGGRLCDKDVNECSQENGGCLQICHNKPGSFHCSCHSGFELSSDGRTCQDIDECADSEACGEARCKNLPGSYSCLCDEGFAYSSQEKACRDVDECLQGRCEQVCVNSPGSYTCHCDGRGGLKLSQDMDTCEDILPCVPFSVAKSVKSLYLGRMFSGTPVIRLRFKRLQPTRLVAEFDFRTFDPEGILLFAGGHQDSTWIVLALRAGRLELQLRYNGVGRVTSSGPVINHGMWQTISVEELARNLVIKVNRDAVMKIAVAGDLFQPERGLYHLNLTVGGIPFHEKDLVQPINPRLDGCMRSWNWLNGEDTTIQETVKVNTRMQCFSVTERGSFYPGSGFAFYSLDYMRTPLDVGTESTWEVEVVAHIRPAADTGVLFALWAPDLRAVPLSVALVDYHSTKKLKKQLVVLAVEHTALALMEIKVCDGQEHVVTVSLRDGEATLEVDGTRGQSEVSAAQLQERLAVLERHLRSPVLTFAGGLPDVPVTSAPVTAFYRGCMTLEVNRRLLDLDEAAYKHSDITAHSCPPVEPAAA
uptake of apoptotic cells by macrophages [5]: highest uptake
